For experiment [1], the system named is human acute lymphocytic leukemia E6.1 Jurkat cells. The experiment can be described thus: Growth inhibition test (MTS) on E6.1 Jurkat cells. The format is cell-based. The settings on record: 72 hours, read-out: Jurkat ED50. As to the method: (§1) Twenty thousand cells of human acute lumphocytic leukemia E6.1 Jurkat were inoculated into each well of a 96-well microplate (manufactured by Corning Corp.) using RPMI 8226 medium (culture medium) containing 10% fetal calf serum (FCS). Next day, a dimethyl sulfoxide (DMSO) solution of each test compound prepared in a concentration of 10 mmol/L was further diluted with culture medium to the desired concentrations (0.1, 0.5, 1, 2.5, 5 and 10 micromol/L), and the diluted solution was added to each well. The individual wells were further cultured in 5% carbon dioxide at 37° C. for 72 hours. After completion of the culture, 10 μl MTS (3-(4,5-Dimethyl-2-thiazolyl)-5-(carboxymethoxyphenyl)-2-(4-sulfophenyl)-2H-tetrazolium, inner salt assay (CellTiter96® AQueous One Solution Cell Proliferation Assay, Promega) was added to each well, and culturing was performed in 5% carbon dioxide at 37° C. for 2 hours. Using a microplate spectrophotometer (Synergy 2 multi-mode microplate reader (BioTek)), the absorbance of each well was measured at 490 nm. The value for cells not incorporated with a test compound was designated as 100%. By comparing these values with the absorbance difference obtained at the well in which each test compound was added, the cell viability (% viability) after treatment with the test compound was calculated.

Experiment [2] relates to human hepatoma HepG2 cells. The experiment can be described thus: Growth inhibition test (MTS) on HepG2 cells. The experiment is classed as cell-based. The settings on record: 72 hours, read-out: HepG2 ED50. As to the method:
as §1, with “Two” for “Twenty”, “hepatoma HepG2” for “acute lumphocytic leukemia E6.1 Jurkat”, “DMEM” for “RPMI 8226”

In experiment [3] the test system is human myelomonocytic, biphenotypic leukemia MV4-11 cells. Put plainly: Growth inhibition test (MTS) on MV4-11 cells. The experiment is classed as cell-based. The settings on record: Homo sapiens, MV4-11, 72 hours, read-out: MV-4-11 ED50. The procedure: as §1, with “Ten” for “Twenty”, “myelomonocytic, biphenotypic” for “acute lumphocytic”, “MV4-11” for “E6.1 Jurkat”, “Iscove's MDM” for “RPMI 8226”

In experiment [4] the target is PIM-1 (Homo sapiens (Human), UniProt P11309). The experiment can be described thus: Luminometric kinase assay for PIM1 kinase (Kinase-Glo). The format is biochemical. Conditions: 1 μM ATP, 25 min at RT. The procedure:
Kinase assay was performed using luminescent Kinase-Glo® (Promega) system. The Kinase-Glo® Luminescent Kinase Assay Platform provides a homogeneous, high-throughput screening method for measuring kinase activity by quantifying the amount of ATP remaining in solution following a kinase reaction. The luminescent signal is correlated with the amount of ATP present and is inversely correlated with the kinase activity. Appropriate amounts of both kinase and substrate were mixed in 96-well, white wall plate in the reaction buffer (8 mM MOPS/NaOH, pH7.0, 0.2 mM EDTA, 2 mM MgCl2). Tested compounds were diluted in DMSO and serial dilutions starting with 1 μM were added to the palates. Reaction was initiated by adding 1 μM of ATP solution and conducted for 25 min. at RT. Luminescent signal was detected by adding Kinase-Glo® reagent and measured using a microplate spectrophotometer (Synergy 2 multi-mode microplate reader (BioTek)). IC50 values were obtained by fitting sigmoidal dose-response curve (variable slope) using GraphPad Prism software.
In general terms: In Kinase-Glo more light means more ATP remaining.

Experiment [5] has as its system human breast adenocarcinoma MCF7 cells. The experiment can be described thus: Growth inhibition test (MTS) on MCF7 cells. The experiment is classed as cell-based. The settings on record: Homo sapiens, MCF7, 72 hours, read-out: MCF-7 ED50. The procedure: as §1, with “Two” for “Twenty”, “breast adenocarcinoma MCF7” for “acute lumphocytic leukemia E6.1 Jurkat”, “Corp.), and” for “Corp.)”, “DMEM” for “RPMI 8226”

For experiment [6], the system named is human prostate adenocarcinoma PC3 cells. The experiment can be described thus: Growth inhibition test (MTS) on PC3 cells. The experiment is classed as cell-based. The settings on record: Homo sapiens, PC-3, 72 hours, read-out: PC-3 ED50.
Source text: as §1, with “Two” for “Twenty”, “prostate adenocarcinoma PC3” for “acute lumphocytic leukemia E6.1 Jurkat”, “Corp.), and” for “Corp.)”, “F12K (Ham's F12:[…]” for “RPMI”, “[…] 1:1)” for “8226”

Here are results for twelve compounds from patent US8604217B2, “Compound, a process for its preparation, a pharmaceutical composition, use of a compound, a method for modulating or regulating serine/threonine kinases and a serine/threonine kinases modulating agent” (Selvita S.A., priority 2009, dated 2013).

Sequence of PIM-1 (P11309 whole entry): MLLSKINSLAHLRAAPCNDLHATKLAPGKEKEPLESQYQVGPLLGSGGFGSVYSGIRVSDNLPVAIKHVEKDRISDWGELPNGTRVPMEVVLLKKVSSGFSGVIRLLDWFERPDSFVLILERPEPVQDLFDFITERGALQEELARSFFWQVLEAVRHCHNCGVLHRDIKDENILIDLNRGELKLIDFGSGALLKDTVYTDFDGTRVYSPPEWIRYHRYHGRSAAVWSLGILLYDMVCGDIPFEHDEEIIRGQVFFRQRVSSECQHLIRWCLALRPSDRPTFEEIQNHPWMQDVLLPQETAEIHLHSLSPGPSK

Regarding `Brc1c(Br)c(Br)c2[nH]c(N3CCN(CCN4CCCCC4)CC3)nc2c1Br` [Compound 76, 4,5,6,7-tetrabromo-2-(4-(2-(piperidin-1-yl)ethyl)piperazin-1-yl)-1H-benzo[d]imidazole], the IC50 in experiment [1] was 3.06 µM; in experiment [2], 4.54 µM; in experiment [3], 5.27 µM; in experiment [4], 0.117 µM.
In the case of `CN(C)CCN(Cc1ccccc1)c1nc2c(Br)c(Br)c(Br)c(Br)c2[nH]1` [Compound 158, N-benzyl-4,5,6,7-tetrabromo-N-(2-(dimethylamino)ethyl)-1H-benzo[d]imidazol-2-amine], the IC50 in experiment [1] stood at 8.42 µM; in experiment [5], 8.31 µM; in experiment [6] it was 8.83 µM; in experiment [2], 3.58 µM; in experiment [3] it was 4.86 µM; in experiment [4] it was 0.0627 µM.
As for `CN(C)CCN1CCC(CNc2nc3c(Br)c(Br)c(Br)c(Br)c3[nH]2)C1` (stereo not drawn) [Compound 166, 4,5,6,7-tetrabromo-N-((1-(2-(dimethylamino)ethyl)pyrrolidin-3-yl)methyl)-1H-benzo[d]imidazol-2-amine], the IC50 in experiment [1] was determined as 4.92 µM; in experiment [5], 4.93 µM; in experiment [6], 3.15 µM; in experiment [2] it was 2.62 µM; in experiment [3], 1.19 µM; in experiment [4] it was 0.051 µM.
For the compound `Brc1c(Br)c(Br)c2[nH]c(NCCCN3CCOCC3)nc2c1Br` [Compound 192, 4,5,6,7-tetrabromo-N-(3-morpholinopropyl)-1H-benzo[d]imidazol-2-amine], the IC50 stood at 7.67 µM in experiment [1], 6.23 µM in experiment [2], 5.13 µM in experiment [3] and 0.0454 µM in experiment [4].
For the compound `Brc1cccc(Nc2nc3c(Br)c(Br)c(Br)c(Br)c3[nH]2)c1` [Compound 236, 4,5,6,7-tetrabromo-N-(3-bromophenyl)-1H-benzo[d]imidazol-2-amine], the IC50 in experiment [1] stood at 4.4 µM; in experiment [5], 4.2 µM; in experiment [6], 2.5 µM; in experiment [2] it was 2.2 µM; in experiment [3], 1.6 µM.
Consider `Brc1c(Br)c(Br)c2[nH]c(NCCN3CCN(c4ncccn4)CC3)nc2c1Br` [Compound 247, 4,5,6,7-tetrabromo-N-(2-(4-(pyrimidin-2-yl)piperazin-1-yl)ethyl)-1H-benzo[d]imidazol-2-amine], for which the IC50 came to 7.84 µM in experiment [1]; 7.15 µM in experiment [5]; 9.01 µM in experiment [2]; 5.96 µM in experiment [3]; 0.109 µM in experiment [4].
Turning to `CN1CCCN(c2nc3c(Br)c(Br)c(Br)c(Br)c3[nH]2)CC1` [Compound 256, 4,5,6,7-tetrabromo-2-(4-methyl-1,4-diazepan-1-yl)-1H-benzo[d]imidazole], the IC50 in experiment [1] was 4.86 µM; in experiment [5], 5.11 µM; in experiment [6] it was 5.18 µM; in experiment [2] it was 3.39 µM; in experiment [3] it was 2.6 µM.
The corresponding values for `Brc1c(Br)c(Br)c2[nH]c(Nc3ccc4ccccc4c3)nc2c1Br` [Compound 259, 4,5,6,7-tetrabromo-N-(naphthalen-3-yl)-1H-benzo[d]imidazol-2-amine] are 7.11 µM, 5.9 µM, 3.51 µM, 5.49 µM and 6.44 µM.
On to `Fc1ccc(CNc2nc3c(Br)c(Br)c(Br)c(Br)c3[nH]2)cc1F` [Compound 296, N-(3,4-difluorobenzyl)-4,5,6,7-tetrabromo-1H-benzo[d]imidazol-2-amine], for which the IC50 stood at 8.12 µM in experiment [1]; 4.21 µM in experiment [6]; 5.91 µM in experiment [2]; 4.15 µM in experiment [3]; 0.17 µM in experiment [4].
For `OC1CCC(Nc2nc3c(Br)c(Br)c(Br)c(Br)c3[nH]2)CC1` (stereo not drawn) [Compound 309, 4-(4,5,6,7-tetrabromo-1H-benzo[d]imidazol-2-ylamino)cyclohexanol], the IC50 stood at 8.18 µM in experiment [1], 4.87 µM in experiment [2], 5.54 µM in experiment [3] and 0.0159 µM in experiment [4].
For the compound `Nc1cc(Br)c(Br)cc1Nc1nc2c(Br)c(Br)c(Br)c(Br)c2[nH]1` [Compound 317, 4,5-dibromo-N1-(4,5,6,7-tetrabromo-1H-benzo[d]imidazol-2-yl)benzene-1,2-diamine], the IC50 in experiment [1] was found to be 7.05 µM; in experiment [5], 6.63 µM; in experiment [2], 4.33 µM; in experiment [3], 3.95 µM; in experiment [4], 0.598 µM.
For `Brc1c(Br)c(Br)c2[nH]c(Nc3ccccn3)nc2c1Br` [Compound 329, 4,5,6,7-tetrabromo-N-(pyridin-2-yl)-1H-benzo[d]imidazol-2-amine], the IC50 in experiment [1] was found to be 4.45 µM; in experiment [6], 4.69 µM; in experiment [4], 0.047 µM.
